Assay results as given in patent US11440909B2, “10H-phenothiazine ferroptosis inhibitor as well as the preparative method and the use thereof” (CHENGDU HENGHAO INVESTMENT CO. LIMITED, priority 2018, dated 2022).

These compounds were tested on fibrosarcoma cell line HT1080 (assay: Ferroptosis screening model (MTT method), Erastin-induced ferroptosis). Details: HT1080, ferroptosis inducer Erastin, 72 h, average of three tests, read-out: EC50.
Type: cell-based, human
Experimental: The screening model for ferroptosis mainly used MTT method. First, the fibrosarcoma cell line HT1080 was cultured in a dish, and the cells in the logarithmic growth phase were inoculated into a 96-well plate in a certain number (3000-10000 cells/well), 100 μL per well, and then the plate was put in an 5% CO2 incubator at 37° C., to allow the cells to adhere. After 24 h, 100 μL compound solution at a certain concentration prepared in the designated medium and ferroptosis inducer Erastin (with a final concentration of […]) were added, setting 3 replicate wells for each compound to ensure the accuracy of the results, and a negative control group, a positive control group (Fer-15 μM), a blank control group and a solvent control group were included. After addition of drugs, the plate was placed in an incubator and cultivated for 72 h. On the day of MTT experiment, MTT test solution (5 mg/mL MTT solution dissolved in physiological saline, and stored in the dark at 4° C.) was pre-prepared and 20 μL MTT solution was added to each well, then the plate was put in an incubator and continued to incubate for 2-4 h. After that, 50 μL of 20% SDS solution (dissolved in MiliiQ water, added with 1% concentrated hydrochloric acid) was added to each well and kept in an incubator overnight. On the next day, the absorbance at 570 nm was measured with a microplate reader, to calculate the inhibition rate of drugs on ferroptosis. Generally, the absorbance value of the control group should be in the range of 0.8-1.2 as a normal value.
GraphPadPrism5 software was used to fit the change curve of inhibition rate and calculate the EC50.
For `COc1ccccc1N1CCN(S(=O)(=O)C(C)c2ccc3c(c2)Nc2ccccc2S3)CC1` (centres unmarked) [Compound C49, 2-(1-((4-(2-methoxylphenyl)piperazin-1-yl)sulfonyl)ethyl)-10H-phenothiazine], the EC50 was 0.228 µM. For `C=C(c1ccc(C(=O)N2CCOCC2)cc1)c1ccc2c(c1)Nc1ccccc1S2` [Compound B47, (4-(1-(10H-phenothiazin-2-yl)ethenyl)phenyl)(morpholine)ketone], the EC50 was 0.024 µM. With `C=C(c1cnc(N2CCOCC2)nc1)c1ccc2c(c1)Nc1ccccc1S2` [Compound C51, 4-(5-(1-(10H-phenothiazin-2-yl)ethenyl)pyrimidin-2-yl)morpholine] the EC50 was 0.143 µM. `CC(c1ccc2c(c1)Nc1ccccc1S2)S(=O)(=O)N1CC[C@H](CNC(=O)OC(C)(C)C)C1` (stereo partly drawn) [Compound C33, t-butyl (((3R)-1-((1-(10H-phenothiazin-2-yl)ethyl)sulfonyl)pyrrolin-3-yl)methyl)carbamate] gave an EC50 of 0.327 µM. In the case of `C=C(c1ccc(N2CCOCC2)cc1)c1ccc2c(c1)Nc1ccccc1S2` [Compound B14, 4-(4-(1-(10H-phenothiazin-2-yl)ethenyl)phenyl)morpholine], the EC50 is reported as 0.039 µM.

Same assay, conditions: Homo sapiens, HT-1080, 72 h, HT1080, ferroptosis inducer Erastin, 72 h, average of three tests, read-out: EC50
For `CC(c1ccc2c(c1)Nc1ccccc1S2)c1cc2ccccc2o1` (centres unmarked) [Compound A67, 2-(1-(benzofuran-2-yl)ethyl)-10H-phenothiazine], the EC50 was 0.016 µM. `CC(c1ccc(OCc2ccccc2)cc1)c1ccc2c(c1)Nc1ccccc1S2` (centres unmarked) [Compound A35, 2-(1-(4-(benzyloxyl)phenyl)ethyl)-10H-phenothiazine] was tested, and the EC50 was 0.014 µM. `CC(c1ccc(F)c(F)c1)c1ccc2c(c1)Nc1ccccc1S2` (centres unmarked) [Compound A39, 2-(1-(3,4-difluorophenyl)ethyl)-10H-phenothiazine] was tested, and the EC50 was 0.017 µM. With `C=C(c1ccc(NC(C)=O)cc1)c1ccc2c(c1)Nc1ccccc1S2` [Compound B9, N-(4-(1-(10H-phenothiazin-2-yl)ethenyl)phenyl)acetylamine] the EC50 was 0.003 µM. `CC(c1cc(F)cc(OCc2ccccc2)c1)c1ccc2c(c1)Nc1ccccc1S2` (centres unmarked) [Compound A64, 2-(1-(3-(benzyloxyl)-5-fluorophenyl)ethyl)-10H-phenothiazine] was tested, and the EC50 was 0.064 µM. Compound `CCN1CCN(S(=O)(=O)C(C)c2ccc3c(c2)Nc2ccccc2S3)CC1` (centres unmarked) [Compound C10, 2-(1-((4-ethylpiperazin-1-yl)sulfonyl)ethyl)-10H-phenothiazine] has an EC50 of 0.017 µM. In the case of `CC(c1ccc2c(c1)Nc1ccccc1S2)c1ccc2c(c1)OCCO2` (centres unmarked) [Compound A65, 2-(1-(2,3-dihydrobenzo[b][1,4]dioxa-6-yl)ethyl)-10H-phenothiazine], the EC50 is reported as 0.008 µM. `COc1cccc(N2CCN(S(=O)(=O)C(C)c3ccc4c(c3)Nc3ccccc3S4)CC2)c1` (centres unmarked) [Compound C54, 2-(1-((4-(3-methoxylphenyl)piperazin-1-yl)sulfonyl)ethyl)-10H-phenothiazine] was tested, and the EC50 was 0.165 µM. With `CC(c1ccc2c(c1)Nc1ccccc1S2)S(=O)(=O)N1CCN(NC(=O)OC(C)(C)C)CC1` (centres unmarked) [Compound C27, t-butyl 4-((1-(10H-phenothiazin-2-yl)ethyl)sulfonyl)piperazin-1-carbamate] the EC50 was 0.256 µM. `CC(c1ccc2c(c1)Nc1ccccc1S2)S(=O)(=O)N1CC[C@H](NC(=O)OC(C)(C)C)C1` (stereo partly drawn) [Compound C31, t-butyl ((3S)-1-((1-(10H-phenothiazin-2-yl)ethyl)sulfonyl)pyrrolin-3-yl)carbamate] was tested, and the EC50 was 0.399 µM. Work on `C=C(c1cccc(C(=O)c2ccccc2)c1)c1ccc2c(c1)Nc1ccccc1S2` [Compound B33, (3-(1-(10H-phenothiazin-2-yl)ethenyl)phenyl)benzophenone] yielded an EC50 of 0.111 µM. For `CCCCc1ccc(C(C)c2ccc3c(c2)Nc2ccccc2S3)cc1` (centres unmarked) [Compound A27, 2-(1-(4-butylphenyl)ethyl)-10H-phenothiazine], the EC50 was 0.064 µM. `C=C(c1ccc(NC(N)=O)cc1)c1ccc2c(c1)Nc1ccccc1S2` [Compound B10, N-(4-(1-(10H-phenothiazin-2-yl)ethenyl)phenyl)urea] showed an EC50 of 0.01 µM. With `CC(=O)N1CCCN(S(=O)(=O)C(C)c2ccc3c(c2)Nc2ccccc2S3)CC1` (centres unmarked) [Compound C25, 1-(4-((1-(10H-phenothiazin-2-yl)ethyl)sulfonyl)-1,4-homopiperazin-1-yl)-1-ethanone] the EC50 was 0.405 µM. Work on `C=C(c1cccc(OCc2ccccc2)c1)c1ccc2c(c1)Nc1ccccc1S2` [Compound B35, 2-(1-(3-(benzyloxyl)phenyl)ethenyl)-10H-phenothiazine] yielded an EC50 of 0.053 µM. In the case of `CC(c1ccc(F)c(Cl)c1)c1ccc2c(c1)Nc1ccccc1S2` (centres unmarked) [Compound A40, 2-(1-(3-chloro-4-fluorophenyl)ethyl)-10H-phenothiazine], the EC50 is reported as 0.005 µM. Compound `C=C(c1cccc(C(F)F)c1)c1ccc2c(c1)Nc1ccccc1S2` [Compound B34, 2-(1-(3-(difluoromethyl)phenyl)ethenyl)-10H-phenothiazine] has an EC50 of 0.011 µM. With `C=C(c1cccc(C)c1)c1ccc2c(c1)Nc1ccccc1S2` [Compound B24, 2-(1-(m-methylphenyl)ethenyl)-10H-phenothiazine] the EC50 was 0.031 µM. In the case of `CC(c1cc(Cl)cc(Cl)c1)c1ccc2c(c1)Nc1ccccc1S2` (centres unmarked) [Compound A57, 2-(1-(3,5-dichlorophenyl)ethyl)-10H-phenothiazine], the EC50 is reported as 0.018 µM. Compound `Cc1cc(C(C)c2ccc3c(c2)Nc2ccccc2S3)ccc1OCc1ccccc1` (centres unmarked) [Compound A54, 2-(1-(4-(benzyloxyl)-3-methylphenyl)ethyl)-10H-phenothiazine] has an EC50 of 0.068 µM. `CC(c1cccc(F)c1)c1ccc2c(c1)Nc1ccccc1S2` (centres unmarked) [Compound A2, 2-(1-(3-fluorophenyl)ethyl)-10H-phenothiazine] showed an EC50 of 0.006 µM. Compound `CC1CCN(S(=O)(=O)C(C)c2ccc3c(c2)Nc2ccccc2S3)CC1` (centres unmarked) [Compound C45, 2-(1-((4-methylpiperidin-1-yl)sulfonyl)ethyl)-10H-phenothiazine] has an EC50 of 0.226 µM. `CC(C)c1ccc(C(C)c2ccc3c(c2)Nc2ccccc2S3)cc1` (centres unmarked) [Compound A26, 2-(1-(4-isopropylphenyl)ethyl)-10H-phenothiazine] gave an EC50 of 0.006 µM. `CC(c1ccc2c(c1)Nc1ccccc1S2)C1CCCCC1` (centres unmarked) [Compound A76, 2-(1-cyclohexylethyl)-10H-phenothiazine] was tested, and the EC50 was 0.005 µM. With `C=C(c1cccc(OC)c1)c1ccc2c(c1)Nc1ccccc1S2` [Compound B21, 2-(1-(3-methoxylphenyl)ethenyl)-10H-phenothiazine] the EC50 was 0.011 µM. `COc1ccc(C(C)c2ccc3c(c2)Nc2ccccc2S3)cc1` (centres unmarked) [Compound A30, 2-(1-(4-methoxylphenyl)ethyl)-10H-phenothiazine] gave an EC50 of 0.006 µM. In the case of `C=C(c1ccc(C(=O)N2CCN(C)CC2)cc1)c1ccc2c(c1)Nc1ccccc1S2` [Compound B48, (4-(1-(10H-phenothiazin-2-yl)ethenyl)phenyl)(4-methylpiperazin-1-yl)ketone], the EC50 is reported as 0.013 µM. `Cc1cc(C(C)c2ccc3c(c2)Nc2ccccc2S3)ccn1` (centres unmarked) [Compound A74, 2-(1-(2-methylpyridin-4-yl)ethyl)-10H-phenothiazine] gave an EC50 of 0.003 µM. With `CC(c1ccc2c(c1)Nc1ccccc1S2)S(=O)(=O)N1CCC(N2CCCCC2)CC1` (centres unmarked) [Compound C43, 2-(1-([1,4′-dipiperidin]-1′-ylsulfonyl)ethyl)-10H-phenothiazine] the EC50 was 0.049 µM. With `C=C(c1cccc(C(F)(F)F)c1)c1ccc2c(c1)Nc1ccccc1S2` [Compound B30, 2-(1-(3-(trifluoromethyl)phenyl)ethenyl)-10H-phenothiazine] the EC50 was 0.045 µM. Work on `CC(c1ccc2c(c1)Nc1ccccc1S2)c1ccc2ccccc2c1` (centres unmarked) [Compound A68, 2-(1-(naphthalen-2-yl)ethyl)-10H-phenothiazine] yielded an EC50 of 0.005 µM. Compound `C=C(c1ccc([N+](=O)[O-])c(C)c1)c1ccc2c(c1)Nc1ccccc1S2` [Compound B38, 2-(1-(3-methyl-4-nitrophenyl)ethenyl)-10H-phenothiazine] has an EC50 of 0.035 µM. `CC(c1cc(F)cc(F)c1)c1ccc2c(c1)Nc1ccccc1S2` (centres unmarked) [Compound A56, 2-(1-(3,5-difluorophenyl)ethyl)-10H-phenothiazine] gave an EC50 of 0.019 µM. `CCOC(=O)C1CCN(S(=O)(=O)C(C)c2ccc3c(c2)Nc2ccccc2S3)CC1` (centres unmarked) [Compound C23] was tested, and the EC50 was 0.62 µM. In the case of `COc1cc(C(C)c2ccc3c(c2)Nc2ccccc2S3)ccc1Cl` (centres unmarked) [Compound A50, 2-(1-(4-chloro-3-methoxylphenyl)ethyl)-10H-phenothiazine], the EC50 is reported as 0.025 µM. Compound `C=C(c1ccc(CC(C)C)cc1)c1ccc2c(c1)Nc1ccccc1S2` [Compound B12, 2-(1-(4-isobutylphenyl)ethenyl)-10H-phenothiazine] has an EC50 of 0.04 µM. `C=C(c1cccc(C(=O)OC)c1)c1ccc2c(c1)Nc1ccccc1S2` [Compound B31, methyl 3-(1-(10H-phenothiazin-2-yl)ethenyl)benzoic acid] gave an EC50 of 0.051 µM. Work on `CC(C)Cc1ccc(C(C)c2ccc3c(c2)Nc2ccccc2S3)cc1` (centres unmarked) [Compound A28, 2-(1-(4-isobutylphenyl)ethyl)-10H-phenothiazine] yielded an EC50 of 0.008 µM.

Same assay, conditions: Homo sapiens, HT-1080, HT1080, ferroptosis inducer Erastin, 72 h, average of three tests, read-out: EC50
`C=C(c1ccc2c(c1)Nc1ccccc1S2)c1cc(OC)c(OC)c(OC)c1` [Compound B42, 2-(1-(3,4,5-trimethoxylphenyl)ethenyl)-10H-phenothiazine] was tested, and the EC50 was 0.045 µM.
